Experimental findings from PubChem BioAssay (NCI) are described below.

Several values for one entry are separate records, joined by “and”; a condition that tells them apart may be missing. Equal entries are not always repeated.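 Five compound concentrations were applied to cells in 96-well plates for 48 hours; endpoints were derived by simple linear interpolation of the resulting dose-response curve. At the GI50, growth is halved. TGI: concentration producing complete growth inhibition.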

Common to all, as to assay: inhibition of tumour cell growth, NCI panel, 48 h
For assay [1], the system named is SR leukemia.
Assay [2] deals with HS 578T breast.
Assay [3] deals with UACC-62 melanoma.
The subject of assay [4] is SN12C renal.
Assay [5] deals with BT-549 breast.
Assay [6] relates to MCF7 breast.
Assay [7] concerns ACHN renal.
The subject of assay [8] is RPMI-8226 leukemia.
Assay [9] has as its system SNB-75 CNS.
The test system of assay [10] is HCC-2998 colon.

`Cc1ccc(C)c(N2CCN(c3ccncc3N)CC2)c1`: the GI50 in [1] was 15.6 µM; in assay [2], 14.8 µM; in assay [3], 13.9 µM; in [4] it was 20.9 µM; in assay [5] it was 21.9 µM; in assay [6], 10.3 µM. The GI50 is 11.9 µM in assay [7], 11.7 µM in assay [8], 16.6 µM in [9] and 15.7 µM in assay [10]. Moreover, the TGI in assay [1] was 52.6 µM; in assay [2] it was 38.4 µM; in [3], 30.8 µM; in assay [4] it was greater than 100 µM; in [5], greater than 100 µM; in assay [6], 29.6 µM. The TGI in [7] is greater than 100 µM; in assay [8], 35.5 µM; in assay [9] it was 59 µM; in [10], 31.8 µM.
For `Oc1ccccc1/C=N\NC(=S)Nc1ccc(F)cc1`, the GI50 in assay [1] is 0.415 µM; in assay [2], 5.14 µM; in assay [3], 0.95 µM; in assay [4], 2.37 µM; in assay [5], 2.35 µM; in [6], 0.888 µM. The GI50 was 0.674 µM in [7], 1.34 µM in assay [8], 1.66 µM in assay [9] and 3.28 µM in [10]. Further, the TGI was 10.5 µM in assay [1]; greater than 100 µM in assay [2]; 4 µM in assay [3]; greater than 93.7 µM in assay [4]; greater than 89.9 µM in [5]; greater than 100 µM in assay [6]. The values for the TGI in assay [7], in assay [9] and in [10] were greater than 100 µM, 14.9 µM and 28.5 µM, respectively.
In the case of `NS(=O)(=O)c1cccc(Nc2cc(-c3ccc(F)cc3)[nH]n2)c1`, the GI50 in assay [1] is 12.5 µM; in [2] it was greater than 20.8 µM; in [3] it was greater than 21.1 µM; in assay [4] it was greater than 20.7 µM; in assay [5] it was greater than 23.9 µM; in [6] it was 20.4 µM. The GI50 is 13.2 µM in assay [7], greater than 25 µM in assay [8], greater than 15.5 µM in [9] and greater than 25 µM in assay [10]. For the same compound, the TGI in assay [1], in [2], in assay [3], in assay [4], in assay [5] and in assay [6] was greater than 25 µM throughout. Also, the TGI in assay [7], in assay [8], in assay [9] and in assay [10] was greater than 25 µM in each case.
`N#Cc1ccc2c(-c3ccnc(NC4CC4)n3)c(-c3ccc(F)cc3)nn2c1`: the GI50 in [1], in [2], in [3], in assay [4], in [5] and in assay [6] was greater than 25 µM throughout. For the same compound, the GI50 in assay [7] is greater than 25 µM; in [8] it was greater than 25 µM; in assay [9], greater than 17.2 µM; in [10], greater than 25 µM. Further, the TGI in [1], in assay [2], in assay [3], in assay [4], in assay [5] and in [6] was greater than 25 µM throughout. Moreover, the TGI in assay [7], in [8], in [9] and in assay [10] was greater than 25 µM each time.
`Nc1nc(N)c(CCCCc2ccc([N+](=O)[O-])cc2)c(N)n1`: the TGI in [1], in [2], in [3], in assay [4], in assay [5] and in assay [6] was greater than 100 µM in each case. For the same compound, the TGI in assay [7], in assay [8], in assay [9] and in assay [10] was greater than 100 µM each time.
`COC(=O)C(=O)C(C(=O)C(=O)Nc1cc(C)ccc1C)c1nc2ccccc2[nH]c1=O` (centres undefined): the TGI in [1], in assay [2], in assay [3], in [4], in assay [5] and in assay [6] was greater than 100 µM in each case. In addition, the TGI in [7] was greater than 100 µM; in assay [8], 71.4 µM; in assay [9], greater than 100 µM; in [10], greater than 100 µM.
Take `NP1(Oc2ccc(F)cc2)=NP(N)(Oc2ccc(F)cc2)=NP(Oc2ccc(F)cc2)(Oc2ccc(F)cc2)=N1` (centres undefined): the TGI in [1] came out at 15.6 µM; in [2] it was 17.7 µM; in [4] it was 18.5 µM; in assay [5] it was 7.44 µM; in [6] it was 10.9 µM; in [7] it was 12.1 µM. For the same compound, the figures for the TGI in assay [8], in assay [9] and in assay [10] were 18.3 µM, 14.5 µM and 8.4 µM, respectively.
Consider `COc1ccc(/C=C\c2cc(OC)c(OC)c(OC)c2)cc1NC(=O)/C=C/c1cc(OC)c(OC)c(OC)c1`, for which the GI50 was 0.854 µM in assay [1]; 5.94 µM in assay [2]; 2.8 µM in [3]; 4.56 µM in [4]; 7.96 µM in assay [5]; 2.92 µM in assay [6]. Also, the GI50 was 6.76 µM in [7], 2.9 µM in assay [8] and 3.73 µM in assay [10]. The TGI was greater than 100 µM in assay [1]; greater than 100 µM in [2]; greater than 100 µM in assay [3]; greater than 100 µM in [4]; 77.4 µM in [5]; greater than 100 µM in assay [6]. The TGI in assay [7], in assay [8] and in [10] was greater than 100 µM in each case.
Regarding `COc1cc2c3c(c4cc(OC)c(OC)cc4c2cc1OC)CN1CCC[C@H]1C3`, the GI50 in [1] was 0.0667 µM and 0.0102 µM; in assay [4], 0.0429 µM and < 0.0105 µM; in [8], 0.0906 µM and < 0.0175 µM; in [9], 0.0084 µM; in assay [10], 0.0356 µM and < 0.01 µM. The TGI is greater than 29.2 µM in assay [2]; 1.3 µM and 0.374 µM in assay [4]; 0.0849 µM and 0.657 µM in assay [5]; 0.127 µM and 0.318 µM in assay [6]; 2.37 µM and 0.393 µM in assay [7]; 0.435 µM and 2.13 µM in [8]. Further, the TGI is 0.0663 µM in assay [9]; 0.3 µM and 0.656 µM in assay [10].
